Measurements as given in the supplement of paper PMC10307832.

Experiments:
Assay in all cases: relative viability (nuclei count vs DMSO), 5 days (fraction); higher = more cells survive
ABC-1 = tested on: ABC-1
Outline: (§1)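 Cells from lung cancer lines were seeded into 1536-well plates and, one day later, dosed by pin tool. Treatments were either a single drug or a fixed dose of an anchor drug with five library-drug doses (not always all listed) in √10 steps. After 5 days, nuclei were stained in a one-step fixation (final 0.05% Triton X-100, 1% formaldehyde, 1 ug/ml Hoechst) and counted on 4× images, and relative viability is the treated-to-vehicle nuclei ratio, as the median of duplicate plates.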

CAL-12T = tested on: CAL-12T
Outline: as §1

COR-L 105 = tested on: COR-L 105
Outline: as §1

ChaGo-K-1 = tested on: ChaGo-K-1
Outline: as §1

EMC-BAC-2 = tested on: EMC-BAC-2
Outline: as §1

EPLC-272H = tested on: EPLC-272H
Outline: as §1

HCC-15 = tested on: HCC-15
Outline: as §1

HCC-78 = tested on: HCC-78
Outline: as §1

HOP-62 = tested on: HOP-62
Outline: as §1

LXF-289 = tested on: LXF-289
Outline: as §1

NCI-H1666 = tested on: NCI-H1666
Outline: as §1

NCI-H1755 = tested on: NCI-H1755
Outline: as §1

NCI-H1915 = tested on: NCI-H1915
Outline: as §1

NCI-H1975 = tested on: NCI-H1975
Outline: as §1

NCI-H2023 = tested on: NCI-H2023
Outline: as §1

NCI-H2085 = tested on: NCI-H2085
Outline: as §1

NCI-H2126 = tested on: NCI-H2126
Outline: as §1

NCI-H3122 = tested on: NCI-H3122
Outline: as §1

NCI-H322M = tested on: NCI-H322M
Outline: as §1

NCI-H358 = tested on: NCI-H358
Outline: as §1

NCI-H441 = tested on: NCI-H441
Outline: as §1

UMC-11 = tested on: UMC-11
Outline: as §1

`Nc1ccn([C@@H]2O[C@H](CO)[C@@H](O)[C@@H]2O)c(=O)n1` [Cytarabine] + COc1cc2c(Oc3ccc(NC(=O)C4(C(=O)Nc5ccc(F)cc5)CC4)cc3F)ccnc2cc1OCCCN1CCOCC1 [Foretinib] (partner 0.25 µM) was tested, and the relative viability (ABC-1; first compound 0.005 µM) was 0.997, the relative viability (ABC-1; first compound 0.01581 µM) was 1.14 and the relative viability (ABC-1; first compound 0.05 µM) was 1.06. For the same compound, the relative viability (ABC-1; first compound 0.1581 µM) was 1.01, the relative viability (ABC-1; first compound 0.5 µM) was 0.63 and the relative viability (CAL-12T; first compound 0.005 µM) was 1.11. The relative viability (CAL-12T; first compound 0.01581 µM) was 1.18, the relative viability (CAL-12T; first compound 0.05 µM) was 1.05 and the relative viability (CAL-12T; first compound 0.1581 µM) was 0.619. The relative viability (CAL-12T; first compound 0.5 µM) was 0.358, the relative viability (COR-L 105; first compound 0.005 µM) was 0.972 and the relative viability (COR-L 105; first compound 0.01581 µM) was 1.29. The relative viability (COR-L 105; first compound 0.05 µM) was 0.825, the relative viability (COR-L 105; first compound 0.1581 µM) was 0.812 and the relative viability (COR-L 105; first compound 0.5 µM) was 0.438. For the same compound, the relative viability (ChaGo-K-1; first compound 0.005 µM) was 0.734, the relative viability (ChaGo-K-1; first compound 0.01581 µM) was 0.59 and the relative viability (ChaGo-K-1; first compound 0.05 µM) was 0.391. It also gave a relative viability (ChaGo-K-1; first compound 0.1581 µM) of 0.259, a relative viability (ChaGo-K-1; first compound 0.5 µM) of 0.251 and a relative viability (EMC-BAC-2; first compound 0.005 µM) of 0.954. It also gave a relative viability (EMC-BAC-2; first compound 0.01581 µM) of 0.831, a relative viability (EMC-BAC-2; first compound 0.05 µM) of 0.305 and a relative viability (EMC-BAC-2; first compound 0.1581 µM) of 0.282. It also gave a relative viability (EMC-BAC-2; first compound 0.5 µM) of 0.226, a relative viability (EPLC-272H; first compound 0.005 µM) of 0.639 and a relative viability (EPLC-272H; first compound 0.01581 µM) of 0.477. It also gave a relative viability (EPLC-272H; first compound 0.05 µM) of 0.461, a relative viability (EPLC-272H; first compound 0.1581 µM) of 0.196 and a relative viability (EPLC-272H; first compound 0.5 µM) of 0.234. The relative viability (HCC-15; first compound 0.005 µM) was 0.905, the relative viability (HCC-15; first compound 0.01581 µM) was 1.05 and the relative viability (HCC-15; first compound 0.05 µM) was 0.996. It also gave a relative viability (HCC-15; first compound 0.1581 µM) of 0.77, a relative viability (HCC-15; first compound 0.5 µM) of 0.706 and a relative viability (HCC-78; first compound 0.005 µM) of 0.601. It also gave a relative viability (HCC-78; first compound 0.01581 µM) of 0.482, a relative viability (HCC-78; first compound 0.05 µM) of 0.524 and a relative viability (HCC-78; first compound 0.1581 µM) of 0.378. It also gave a relative viability (HCC-78; first compound 0.5 µM) of 0.372, a relative viability (HOP-62; first compound 0.005 µM) of 0.904 and a relative viability (HOP-62; first compound 0.01581 µM) of 0.875. For the same compound, the relative viability (HOP-62; first compound 0.05 µM) was 0.45, the relative viability (HOP-62; first compound 0.1581 µM) was 0.137 and the relative viability (HOP-62; first compound 0.5 µM) was 0.142. It also gave a relative viability (LXF-289; first compound 0.005 µM) of 0.939, a relative viability (LXF-289; first compound 0.01581 µM) of 0.961 and a relative viability (LXF-289; first compound 0.05 µM) of 0.749. The relative viability (LXF-289; first compound 0.1581 µM) was 0.412, the relative viability (LXF-289; first compound 0.5 µM) was 0.299 and the relative viability (NCI-H1666; first compound 0.005 µM) was 0.921. The relative viability (NCI-H1666; first compound 0.01581 µM) was 0.869, the relative viability (NCI-H1666; first compound 0.05 µM) was 0.799 and the relative viability (NCI-H1666; first compound 0.1581 µM) was 0.549. It also gave a relative viability (NCI-H1666; first compound 0.5 µM) of 0.541, a relative viability (NCI-H1755; first compound 0.005 µM) of 0.962 and a relative viability (NCI-H1755; first compound 0.01581 µM) of 0.886. For the same compound, the relative viability (NCI-H1755; first compound 0.05 µM) was 0.736, the relative viability (NCI-H1755; first compound 0.1581 µM) was 0.387 and the relative viability (NCI-H1755; first compound 0.5 µM) was 0.356. For the same compound, the relative viability (NCI-H1915; first compound 0.005 µM) was 1.11, the relative viability (NCI-H1915; first compound 0.01581 µM) was 1.02 and the relative viability (NCI-H1915; first compound 0.05 µM) was 1.01. It also gave a relative viability (NCI-H1915; first compound 0.1581 µM) of 0.771, a relative viability (NCI-H1915; first compound 0.5 µM) of 0.757 and a relative viability (NCI-H1975; first compound 0.005 µM) of 0.982. The relative viability (NCI-H1975; first compound 0.01581 µM) was 1.03, the relative viability (NCI-H1975; first compound 0.05 µM) was 0.889 and the relative viability (NCI-H1975; first compound 0.1581 µM) was 0.481. The relative viability (NCI-H1975; first compound 0.5 µM) was 0.314, the relative viability (NCI-H2023; first compound 0.005 µM) was 0.535 and the relative viability (NCI-H2023; first compound 0.01581 µM) was 0.502. For the same compound, the relative viability (NCI-H2023; first compound 0.05 µM) was 0.158, the relative viability (NCI-H2023; first compound 0.1581 µM) was 0.101 and the relative viability (NCI-H2023; first compound 0.5 µM) was 0.0682. The relative viability (NCI-H2085; first compound 0.005 µM) was 0.994, the relative viability (NCI-H2085; first compound 0.01581 µM) was 0.847 and the relative viability (NCI-H2085; first compound 0.05 µM) was 0.75. It also gave a relative viability (NCI-H2085; first compound 0.1581 µM) of 0.555, a relative viability (NCI-H2085; first compound 0.5 µM) of 0.475 and a relative viability (NCI-H2126; first compound 0.005 µM) of 1.01. It also gave a relative viability (NCI-H2126; first compound 0.01581 µM) of 1.03, a relative viability (NCI-H2126; first compound 0.05 µM) of 1.1 and a relative viability (NCI-H2126; first compound 0.1581 µM) of 0.922. It also gave a relative viability (NCI-H2126; first compound 0.5 µM) of 0.694, a relative viability (NCI-H3122; first compound 0.005 µM) of 0.887 and a relative viability (NCI-H3122; first compound 0.01581 µM) of 0.805. It also gave a relative viability (NCI-H3122; first compound 0.05 µM) of 0.777, a relative viability (NCI-H3122; first compound 0.1581 µM) of 0.509 and a relative viability (NCI-H3122; first compound 0.5 µM) of 0.344. For the same compound, the relative viability (NCI-H322M; first compound 0.005 µM) was 0.827, the relative viability (NCI-H322M; first compound 0.01581 µM) was 0.761 and the relative viability (NCI-H322M; first compound 0.05 µM) was 0.677. The relative viability (NCI-H322M; first compound 0.1581 µM) was 0.464, the relative viability (NCI-H322M; first compound 0.5 µM) was 0.336 and the relative viability (NCI-H358; first compound 0.005 µM) was 0.612. The relative viability (NCI-H358; first compound 0.01581 µM) was 0.603, the relative viability (NCI-H358; first compound 0.05 µM) was 0.3 and the relative viability (NCI-H358; first compound 0.1581 µM) was 0.131. The relative viability (NCI-H358; first compound 0.5 µM) was 0.126, the relative viability (NCI-H441; first compound 0.005 µM) was 0.841 and the relative viability (NCI-H441; first compound 0.01581 µM) was 0.856. For the same compound, the relative viability (NCI-H441; first compound 0.05 µM) was 1.05, the relative viability (NCI-H441; first compound 0.1581 µM) was 0.661 and the relative viability (NCI-H441; first compound 0.5 µM) was 0.4. For the same compound, the relative viability (UMC-11; first compound 0.005 µM) was 0.653, the relative viability (UMC-11; first compound 0.01581 µM) was 0.63 and the relative viability (UMC-11; first compound 0.05 µM) was 0.45. The relative viability (UMC-11; first compound 0.1581 µM) was 0.349 and the relative viability (UMC-11; first compound 0.5 µM) was 0.261.
